Experimental data taken from the supplement of paper PMC13207355.
Where a name gives a salt, the structure may show the parent alone.

Experiments:
Settings in all cases: exposure time: 72 h
E13 [1] = patient-derived glioblastoma stem cells of classical subtype; assay: surviving fraction (nuclei count normalised to DMSO); higher = more cells surviving (less toxic)
E21 [2] = patient-derived glioblastoma stem cells of mesenchymal subtype; assay: as above
E28 [3] = patient-derived glioblastoma stem cells of classical subtype; assay: as above
E31 [4] = patient-derived glioblastoma stem cells of proneural subtype; assay: as above
E34 [5] = patient-derived glioblastoma stem cells of proneural subtype; assay: as above
E57 [6] = patient-derived glioblastoma stem cells of mesenchymal subtype; assay: as above
FT3469 [7] = normal neural stem cell line; assay: as above
E13 [8] = assay: phenotypic distance (Euclidean, principal components) from DMSO controls (arbitrary units); higher = stronger morphological change
E21 [9] = assay: as above
E28 [10] = assay: as above
E31 [11] = assay: as above
E34 [12] = assay: as above
E57 [13] = assay: as above
FT3469 [14] = assay: as above
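For phenotypic distance (Euclidean, principal components) from DMSO controls in this document: cell Painting imaging in 384-well plates, CellProfiler features reduced to at least 20 principal components, Euclidean distance versus same-plate DMSO vehicle wells (0.1% v/v), median over six images per well.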
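For surviving fraction (nuclei count normalised to DMSO) in this document: nuclei counted by high-content imaging of Hoechst-stained cells in laminin-coated 384-well plates, relative to 0.1% DMSO vehicle wells, with staurosporine as cell-death control.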

CC(C)NCC(O)c1ccc(O)c(O)c1 (stereo unspecified) [Isoproterenol hydrochloride]
Settings	phenotypic distance	surviving fraction
E13 [1], 4.1 nM	–	0.935
E13 [1], 12.3 nM	–	0.961
E13 [1], 37 nM	–	1.01
E13 [1], 111.1 nM	–	0.949
E13 [1], 333.3 nM	–	0.974
E13 [1], 1000 nM	–	0.842
E13 [1], 3000 nM	–	1
E13 [8], 4.1 nM	1.71	–
E13 [8], 12.3 nM	1.34	–
E13 [8], 37 nM	1.11	–
E13 [8], 111.1 nM	0.927	–
E13 [8], 333.3 nM	0.863	–
E13 [8], 1000 nM	0.656	–
E13 [8], 3000 nM	0.895	–
E21 [2], 4.1 nM	–	0.983
E21 [2], 12.3 nM	–	0.836
E21 [2], 37 nM	–	0.946
E21 [2], 111.1 nM	–	0.954
E21 [2], 333.3 nM	–	0.957
E21 [2], 1000 nM	–	1.03
E21 [2], 3000 nM	–	0.989
E21 [9], 4.1 nM	1.03	–
E21 [9], 12.3 nM	0.961	–
E21 [9], 37 nM	0.559	–
E21 [9], 111.1 nM	0.37	–
E21 [9], 333.3 nM	0.707	–
E21 [9], 1000 nM	0.442	–
E21 [9], 3000 nM	0.786	–
E28 [3], 4.1 nM	–	1.14
E28 [3], 12.3 nM	–	1.19
E28 [3], 37 nM	–	1.05
E28 [3], 111.1 nM	–	1.09
E28 [3], 333.3 nM	–	1.17
E28 [3], 1000 nM	–	1.1
E28 [3], 3000 nM	–	1.22
E28 [10], 4.1 nM	1.26	–
E28 [10], 12.3 nM	0.749	–
E28 [10], 37 nM	0.577	–
E28 [10], 111.1 nM	0.661	–
E28 [10], 333.3 nM	0.903	–
E28 [10], 1000 nM	0.652	–
E28 [10], 3000 nM	0.87	–
E31 [4], 4.1 nM	–	0.999
E31 [4], 12.3 nM	–	1.05
E31 [4], 37 nM	–	0.967
E31 [4], 111.1 nM	–	0.989
E31 [4], 333.3 nM	–	1.02
E31 [4], 1000 nM	–	1.27
E31 [4], 3000 nM	–	1.24
E31 [11], 4.1 nM	3.31	–
E31 [11], 12.3 nM	0.604	–
E31 [11], 37 nM	0.63	–
E31 [11], 111.1 nM	0.645	–
E31 [11], 333.3 nM	0.706	–
E31 [11], 1000 nM	0.745	–
E31 [11], 3000 nM	0.88	–
E34 [5], 4.1 nM	–	1.03
E34 [5], 12.3 nM	–	1
E34 [5], 37 nM	–	1.13
E34 [5], 111.1 nM	–	1.09
E34 [5], 333.3 nM	–	1.15
E34 [5], 1000 nM	–	1.11
E34 [5], 3000 nM	–	1.11
E34 [12], 4.1 nM	0.806	–
E34 [12], 12.3 nM	0.933	–
E34 [12], 37 nM	0.861	–
E34 [12], 111.1 nM	0.633	–
E34 [12], 333.3 nM	0.9	–
E34 [12], 1000 nM	0.781	–
E34 [12], 3000 nM	0.963	–
E57 [6], 4.1 nM	–	1.01
E57 [6], 12.3 nM	–	0.941
E57 [6], 37 nM	–	0.999
E57 [6], 111.1 nM	–	0.974
E57 [6], 333.3 nM	–	1.12
E57 [6], 1000 nM	–	1.14
E57 [6], 3000 nM	–	1.11
E57 [13], 4.1 nM	0.878	–
E57 [13], 12.3 nM	0.696	–
E57 [13], 37 nM	0.871	–
E57 [13], 111.1 nM	1.09	–
E57 [13], 333.3 nM	1.1	–
E57 [13], 1000 nM	3.04	–
E57 [13], 3000 nM	1.28	–
FT3469 [7], 4.1 nM	–	0.975
FT3469 [7], 12.3 nM	–	1.04
FT3469 [7], 37 nM	–	0.928
FT3469 [7], 111.1 nM	–	1.15
FT3469 [7], 333.3 nM	–	1.18
FT3469 [7], 1000 nM	–	1.04
FT3469 [7], 3000 nM	–	1.1
FT3469 [14], 4.1 nM	1.05	–
FT3469 [14], 12.3 nM	0.977	–
FT3469 [14], 37 nM	1.54	–
FT3469 [14], 111.1 nM	0.756	–
FT3469 [14], 333.3 nM	1.08	–
FT3469 [14], 1000 nM	0.765	–
FT3469 [14], 3000 nM	1.18	–

Nc1ccn([C@@H]2O[C@H](CO)[C@@H](O)[C@@H]2O)c(=O)n1 [Cytarabine]
Settings	phenotypic distance	surviving fraction
E13 [1], 4.1 nM	–	0.893
E13 [1], 12.3 nM	–	0.843
E13 [1], 37 nM	–	0.673
E13 [1], 111.1 nM	–	0.645
E13 [1], 333.3 nM	–	0.42
E13 [1], 1000 nM	–	0.448
E13 [1], 3000 nM	–	0.389
E13 [8], 4.1 nM	0.95	–
E13 [8], 12.3 nM	1.36	–
E13 [8], 37 nM	1.77	–
E13 [8], 111.1 nM	2.69	–
E13 [8], 333.3 nM	4.49	–
E13 [8], 1000 nM	4.63	–
E13 [8], 3000 nM	4.85	–
E21 [2], 4.1 nM	–	0.787
E21 [2], 12.3 nM	–	0.77
E21 [2], 37 nM	–	0.649
E21 [2], 111.1 nM	–	0.533
E21 [2], 333.3 nM	–	0.339
E21 [2], 1000 nM	–	0.236
E21 [2], 3000 nM	–	0.154
E21 [9], 4.1 nM	1.63	–
E21 [9], 12.3 nM	2.01	–
E21 [9], 37 nM	2.73	–
E21 [9], 111.1 nM	3.44	–
E21 [9], 333.3 nM	4.54	–
E21 [9], 1000 nM	4.75	–
E21 [9], 3000 nM	5.65	–
E28 [3], 4.1 nM	–	0.778
E28 [3], 12.3 nM	–	0.775
E28 [3], 37 nM	–	0.542
E28 [3], 111.1 nM	–	0.586
E28 [3], 333.3 nM	–	0.474
E28 [3], 1000 nM	–	0.511
E28 [3], 3000 nM	–	0.333
E28 [10], 4.1 nM	1.71	–
E28 [10], 12.3 nM	1.24	–
E28 [10], 37 nM	1.72	–
E28 [10], 111.1 nM	2.6	–
E28 [10], 333.3 nM	2.45	–
E28 [10], 1000 nM	2.47	–
E28 [10], 3000 nM	3.27	–
E31 [4], 4.1 nM	–	0.861
E31 [4], 12.3 nM	–	0.637
E31 [4], 37 nM	–	0.463
E31 [4], 111.1 nM	–	0.312
E31 [4], 333.3 nM	–	0.149
E31 [4], 1000 nM	–	0.127
E31 [4], 3000 nM	–	0.126
E31 [11], 4.1 nM	1.02	–
E31 [11], 12.3 nM	1.8	–
E31 [11], 37 nM	1.75	–
E31 [11], 111.1 nM	3.19	–
E31 [11], 333.3 nM	3.48	–
E31 [11], 1000 nM	3.7	–
E31 [11], 3000 nM	4.49	–
E34 [5], 4.1 nM	–	0.892
E34 [5], 12.3 nM	–	0.803
E34 [5], 37 nM	–	0.723
E34 [5], 111.1 nM	–	0.687
E34 [5], 333.3 nM	–	0.555
E34 [5], 1000 nM	–	0.514
E34 [5], 3000 nM	–	0.466
E34 [12], 4.1 nM	1.44	–
E34 [12], 12.3 nM	1.82	–
E34 [12], 37 nM	2.13	–
E34 [12], 111.1 nM	3.16	–
E34 [12], 333.3 nM	3.2	–
E34 [12], 1000 nM	3.33	–
E34 [12], 3000 nM	3.62	–
E57 [6], 4.1 nM	–	0.687
E57 [6], 12.3 nM	–	0.62
E57 [6], 37 nM	–	0.443
E57 [6], 111.1 nM	–	0.316
E57 [6], 333.3 nM	–	0.179
E57 [6], 1000 nM	–	0.179
E57 [6], 3000 nM	–	0.161
E57 [13], 4.1 nM	2.41	–
E57 [13], 12.3 nM	3.28	–
E57 [13], 37 nM	4.72	–
E57 [13], 111.1 nM	6.26	–
E57 [13], 333.3 nM	7.13	–
E57 [13], 1000 nM	6.77	–
E57 [13], 3000 nM	6.62	–
FT3469 [7], 4.1 nM	–	0.758
FT3469 [7], 12.3 nM	–	0.684
FT3469 [7], 37 nM	–	0.654
FT3469 [7], 111.1 nM	–	0.753
FT3469 [7], 333.3 nM	–	0.684
FT3469 [7], 1000 nM	–	0.553
FT3469 [7], 3000 nM	–	0.62
FT3469 [14], 4.1 nM	1.13	–
FT3469 [14], 12.3 nM	1.74	–
FT3469 [14], 37 nM	1.5	–
FT3469 [14], 111.1 nM	1.8	–
FT3469 [14], 333.3 nM	2.13	–
FT3469 [14], 1000 nM	1.94	–
FT3469 [14], 3000 nM	1.69	–
